Assay results published in ChEMBL document CHEMBL1127251, “New neplanocin analogues. III. 6R-configuration is essential for the antiviral activity of 6-C-methyl-3-deazaneplanocin a's” (Bioorg Med Chem Lett, 1994).
Values after ≈ are worked out from the molar mass of the structure shown.

Assays:
[1] = tested on: Vero; experiment: In vitro anti-vesicular stomatitis virus activity in vero cell cultures; type: functional; settings: Chlorocebus sabaeus, read-out: ED50 (the source's name)
[2] = Ratio of cytotoxicity, IC50(growing) to antiviral activity (ED50) was determined; type: functional
[3] = tested on: Vero; experiment: Cytotoxic effect on host cells during stationary phase of virus in vero cell cultures using MTT method; type: functional, cell-based; settings: Chlorocebus sabaeus
[4] = tested on: Vero; experiment: Cytotoxic effect on host cells during growth phase of virus in vero cell cultures using MTT method; type: functional, cell-based; settings: Chlorocebus sabaeus

SMILES	EC50 [1]	Selectivity index [2]	IC50 [3]	IC50 [4]
C[C@@H](O)C1=C[C@@H](n2cnc3c(N)ncnc32)[C@H](O)[C@@H]1O	0.24 µg/mL (≈ 0.866 µM)	9.2	> 500 µg/mL	2.2 µg/mL (≈ 7.93 µM)
C[C@H](O)C1=C[C@@H](n2cnc3c(N)nccc32)[C@H](O)[C@@H]1O	> 100 µg/mL		> 500 µg/mL	> 100 µg/mL
Nc1ncnc2c1ncn2[C@@H]1C=C(CO)[C@@H](O)[C@H]1O [NEOPLANOCIN A]	0.24 µg/mL (≈ 0.912 µM)	1.1	152 µg/mL (≈ 577 µM)	0.26 µg/mL (≈ 0.988 µM)
C[C@H](O)C1=C[C@@H](n2cnc3c(N)ncnc32)[C@H](O)[C@@H]1O	> 100 µg/mL		> 500 µg/mL	> 100 µg/mL
C[C@@H](O)C1=C[C@@H](n2cnc3c(N)nccc32)[C@H](O)[C@@H]1O	1 µg/mL (≈ 3.62 µM)	12	> 500 µg/mL	12 µg/mL (≈ 43.4 µM)
Nc1nccc2c1ncn2[C@@H]1C=C(CO)[C@@H](O)[C@H]1O	0.24 µg/mL (≈ 0.915 µM)	2.3	> 500 µg/mL	0.55 µg/mL (≈ 2.1 µM)
